Measured values published in patent US20200017495A1, “NOVEL HETEROCYCLIC COMPOUNDS AND THEIR USE IN PREVENTING OR TREATING BACTERIAL INFECTIONS” (priority 2017, published 2020).
Read-outs that look alike come from different tables or passages of the source.

Experiments:
[1] = biological target: P99 ampC (Enterobacter cloacae, UniProt P05364); assay: β-lactamase inhibitory activity, IC50 (nitrocefin hydrolysis); format: biochemical
Procedure: (§1) Method 1: β-Lactamase Inhibitory Activity, Determination of IC50 (Table 1)
(§2) Enzymes were cloned in E. coli expression vector, expressed and purified in house using classical procedures. […] After 30 min of pre-incubation at room temperature, 15 μL of NCF (100 μM final) were finally added in each well. […] Enzyme activity was obtained by subtracting the background from the final signal, and was converted to enzyme inhibition using non inhibited wells. IC50 curves were fitted to a classical Langmuir equilibrium model with Hill slope using XLFIT (IDBS).

[2] = biological target: SHV-1 (Klebsiella pneumoniae, UniProt P0AD64); assay: as above; format: biochemical
Chain of SHV-1 (P0AD64 22-286): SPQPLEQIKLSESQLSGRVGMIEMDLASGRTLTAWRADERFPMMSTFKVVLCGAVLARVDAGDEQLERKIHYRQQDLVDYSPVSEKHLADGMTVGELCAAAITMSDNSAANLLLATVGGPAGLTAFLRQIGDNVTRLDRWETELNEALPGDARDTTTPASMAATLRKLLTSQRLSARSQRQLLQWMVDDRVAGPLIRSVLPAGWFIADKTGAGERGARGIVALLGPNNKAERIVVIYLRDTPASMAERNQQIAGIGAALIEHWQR
Procedure: as §2

[3] = biological target: OXA-1 (Escherichia coli, UniProt P13661); assay: as above; format: biochemical
Chain of OXA-1 (P13661 26-276): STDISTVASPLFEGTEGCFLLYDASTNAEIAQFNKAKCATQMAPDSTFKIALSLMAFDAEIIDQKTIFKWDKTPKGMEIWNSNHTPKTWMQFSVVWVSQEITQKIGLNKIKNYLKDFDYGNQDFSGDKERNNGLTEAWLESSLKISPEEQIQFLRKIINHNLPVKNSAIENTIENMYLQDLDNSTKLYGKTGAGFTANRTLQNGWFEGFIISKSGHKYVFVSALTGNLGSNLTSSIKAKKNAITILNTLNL
Procedure: as §2

[4] = biological target: SHV-12 (Klebsiella pneumoniae, UniProt P0AD64, E235K/G234S/L31Q); assay: as above; format: biochemical
Chain of SHV-12 (P0AD64 22-286 L31Q/G234S/E235K): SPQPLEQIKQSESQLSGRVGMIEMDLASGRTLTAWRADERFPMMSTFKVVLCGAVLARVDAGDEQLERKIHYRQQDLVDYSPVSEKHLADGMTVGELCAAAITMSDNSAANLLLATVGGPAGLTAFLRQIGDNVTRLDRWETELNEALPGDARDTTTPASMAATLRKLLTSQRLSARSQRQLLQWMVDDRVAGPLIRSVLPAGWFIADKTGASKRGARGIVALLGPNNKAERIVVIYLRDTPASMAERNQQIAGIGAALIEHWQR
Procedure: as §1, §2

[5] = biological target: OXA-40 (Acinetobacter baumannii, UniProt Q8RLA6); assay: as above; format: biochemical
Chain of OXA-40 (Q8RLA6 entry or part of it): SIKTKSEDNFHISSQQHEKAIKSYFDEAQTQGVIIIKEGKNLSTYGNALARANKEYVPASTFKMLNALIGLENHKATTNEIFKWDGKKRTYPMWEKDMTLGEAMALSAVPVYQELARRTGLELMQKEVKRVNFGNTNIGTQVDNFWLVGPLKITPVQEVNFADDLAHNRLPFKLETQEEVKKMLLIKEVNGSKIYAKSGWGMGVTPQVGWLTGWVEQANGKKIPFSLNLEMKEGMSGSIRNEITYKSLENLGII
Procedure: as §2

[6] = tested on: Klebsiella pneumoniae (KPN) isolates; assay: MIC of compounds alone and combined with antibacterials, broth microdilution (CLSI); format: cell-based; details: Klebsiella pneumoniae, read-out: MIC
Method in brief: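 Log-phase isolates were inoculated at a final 5.10^5 CFU/mL in cation-adjusted Mueller-Hinton broth and incubated 16-20 h at 35° C in ambient air. MIC was the lowest concentration preventing visible growth; for combinations, the antibacterial MIC was read at each compound concentration.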

[7] = biological target: OXA-11 (Pseudomonas aeruginosa, UniProt Q06778); assay: β-lactamase inhibitory activity, IC50 (nitrocefin hydrolysis); format: biochemical
Chain of OXA-11 (Q06778 21-266): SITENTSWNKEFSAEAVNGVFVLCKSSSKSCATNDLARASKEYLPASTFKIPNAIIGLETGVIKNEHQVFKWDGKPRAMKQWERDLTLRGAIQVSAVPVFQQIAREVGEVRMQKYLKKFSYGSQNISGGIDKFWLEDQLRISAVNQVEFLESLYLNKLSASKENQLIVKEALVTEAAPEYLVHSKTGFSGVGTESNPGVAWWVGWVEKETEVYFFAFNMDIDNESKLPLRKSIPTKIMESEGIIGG
Procedure: as §2

[8] = tested on: Citrobacter murliniae (CMU) isolates; assay: MIC of compounds alone and combined with antibacterials, broth microdilution (CLSI); format: cell-based; details: Citrobacter murliniae; CMU 210102; alone; read-out: MIC
Method in brief: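 Growth inhibition was read visually after 16-20 h at 35° C, giving compound MICs and antibacterial MICs at each fixed compound level. Bacteria in log phase were inoculated at 5.10^5 CFU/mL in ca-MHB onto DMSO-spotted compound or compound/antibacterial dilutions per CLSI microdilution.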

[9] = biological target: OXA-58 (Acinetobacter baumannii, UniProt Q2TR58); assay: β-lactamase inhibitory activity, IC50 (nitrocefin hydrolysis); format: biochemical
Chain of OXA-58 (Q2TR58 19-280): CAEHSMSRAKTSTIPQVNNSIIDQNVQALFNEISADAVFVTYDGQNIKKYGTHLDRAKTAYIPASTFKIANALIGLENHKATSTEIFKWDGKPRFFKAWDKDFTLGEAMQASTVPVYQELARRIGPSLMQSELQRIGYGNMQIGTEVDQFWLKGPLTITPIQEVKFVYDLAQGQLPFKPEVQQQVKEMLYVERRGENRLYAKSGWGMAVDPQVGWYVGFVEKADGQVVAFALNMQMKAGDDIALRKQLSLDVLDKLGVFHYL
Procedure: as §2

[10] = biological target: KPC-2 (Klebsiella pneumoniae, UniProt Q9F663); assay: as above; format: biochemical
Chain of KPC-2 (Q9F663 25-293 limits assumed): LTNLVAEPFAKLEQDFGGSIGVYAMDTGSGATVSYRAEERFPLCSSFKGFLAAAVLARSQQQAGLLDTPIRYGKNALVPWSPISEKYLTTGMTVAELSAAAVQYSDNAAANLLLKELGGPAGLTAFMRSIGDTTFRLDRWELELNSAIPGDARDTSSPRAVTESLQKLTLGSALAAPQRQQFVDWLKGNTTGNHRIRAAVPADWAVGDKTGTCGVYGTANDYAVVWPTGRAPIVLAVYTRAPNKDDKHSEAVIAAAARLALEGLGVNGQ
Procedure: as §1, §2

[11] = biological target: OXA-15 (Pseudomonas aeruginosa, UniProt Q51574); assay: as above; format: biochemical
Chain of OXA-15 (Q51574 22-275): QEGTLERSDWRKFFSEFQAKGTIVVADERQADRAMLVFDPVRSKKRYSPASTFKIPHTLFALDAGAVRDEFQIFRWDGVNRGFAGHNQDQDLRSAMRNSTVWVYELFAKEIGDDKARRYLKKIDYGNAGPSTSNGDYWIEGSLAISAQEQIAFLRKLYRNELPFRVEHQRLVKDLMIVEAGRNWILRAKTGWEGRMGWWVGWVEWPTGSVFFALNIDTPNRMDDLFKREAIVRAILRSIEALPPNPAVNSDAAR
Procedure: as §2

[12] = biological target: SAU PC1 (Staphylococcus aureus, UniProt P00807); assay: as above; format: biochemical, S. aureus
Chain of SAU PC1 (P00807 25-281): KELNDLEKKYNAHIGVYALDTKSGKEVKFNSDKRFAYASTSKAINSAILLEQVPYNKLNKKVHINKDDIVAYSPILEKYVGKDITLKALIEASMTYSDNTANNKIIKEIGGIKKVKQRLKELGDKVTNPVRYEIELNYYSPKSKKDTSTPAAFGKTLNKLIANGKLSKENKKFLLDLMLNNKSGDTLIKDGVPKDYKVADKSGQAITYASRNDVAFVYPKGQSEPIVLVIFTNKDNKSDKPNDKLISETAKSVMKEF
Procedure: as §1, §2

[13] = biological target: CTX-M-15 (Escherichia coli, UniProt Q9EXV5); assay: as above; format: biochemical
Chain of CTX-M-15 (Q9EXV5 entry or part of it): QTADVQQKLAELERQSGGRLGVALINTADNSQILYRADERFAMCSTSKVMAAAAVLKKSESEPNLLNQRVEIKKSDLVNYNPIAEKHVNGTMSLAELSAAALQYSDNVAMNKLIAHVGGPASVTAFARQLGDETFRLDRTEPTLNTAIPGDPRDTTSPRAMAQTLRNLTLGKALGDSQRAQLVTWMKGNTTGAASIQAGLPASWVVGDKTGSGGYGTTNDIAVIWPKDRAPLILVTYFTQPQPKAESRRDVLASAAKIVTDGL
Procedure: as §1, §2

[14] = strain KPN 140347, compound alone
[15] = strain KPN UFR162, compound alone
[16] = strain KPN UFR163, compound alone
[17] = strain KPN UFR164, compound alone
[18] = strain KPN UFR165, compound alone
[19] = strain KPN UFR166, compound alone
[20] = strain KPN UFR167, compound alone
[21] = strain KPN UFR168, compound alone
[22] = strain KPN UFR169, compound alone
[23] = strain KPN UFR170, compound alone
[24] = strain KPN UFR171, compound alone
[25] = strain KPN UFR172, compound alone
[26] = strain KPN UFR229O, compound alone

Chain of P99 ampC (P05364 21-381): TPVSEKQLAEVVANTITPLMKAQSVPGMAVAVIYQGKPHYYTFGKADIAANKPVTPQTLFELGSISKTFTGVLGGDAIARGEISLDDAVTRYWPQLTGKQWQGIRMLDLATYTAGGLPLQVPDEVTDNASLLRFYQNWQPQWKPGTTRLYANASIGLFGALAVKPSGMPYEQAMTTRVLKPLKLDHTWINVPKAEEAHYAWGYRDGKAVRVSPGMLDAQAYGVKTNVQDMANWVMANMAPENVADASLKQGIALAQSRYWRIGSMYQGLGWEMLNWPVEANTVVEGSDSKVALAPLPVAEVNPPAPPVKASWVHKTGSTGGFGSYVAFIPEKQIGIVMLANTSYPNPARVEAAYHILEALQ

For `O=C1N2CC(c3ncco3)=CC(C2)N1OC(F)(F)C(=O)[O-].[Li+]` (stereo not drawn) [AF2], the IC50 [1] was 730 nM, the IC50 [2] was 12 nM and the IC50 [3] was 2100 nM. The IC50 [4] was 4.1 nM, the IC50 [5] was 8300 nM and the MIC ([6]; BAA1898, KPN BAA-1898, alone) was 8 µg/mL. The MIC ([6]; KPN 6299, alone) was 16 µg/mL, the MIC ([6]; KPN 110376, alone) was 8 µg/mL and the MIC ([6]; KPN 121206, alone) was 16 µg/mL. For the same molecule, the MIC ([6]; KPN 131119, alone) was 8 µg/mL, the MIC ([6]; KPN 140513, alone) was 32 µg/mL and the MIC ([6]; KPN 160143, alone) was 8 µg/mL. It also gave an MIC ([6]; KPN 190128, alone) of 16 µg/mL, an MIC ([6]; KPN 190270, alone) of 16 µg/mL and an MIC ([6]; KPN 190425, alone) of 16 µg/mL. It also gave an MIC ([6]; KPN 190551, alone) of 4 µg/mL, an MIC ([6]; KPN 200047, alone) of 4 µg/mL and an MIC ([6]; KPN 200327, alone) of 4 µg/mL. The MIC ([6]; KPN 260251, alone) was 16 µg/mL, the MIC ([6]; KPN 260252, alone) was 16 µg/mL and the MIC ([6]; KPN 260376, alone) was 4 µg/mL. For the same molecule, the MIC ([6]; KPN 270077, alone) was > 32 µg/mL, the MIC ([6]; KPN 700603, alone) was 32 µg/mL and the MIC ([6]; KPN ARA, alone) was 8 µg/mL. It also gave an MIC ([6]; KPN LIB, alone) of 8 µg/mL, an MIC ([6]; KPN UFR22_O, alone) of 8 µg/mL and an MIC ([6]; KPN UFR23, alone) of 16 µg/mL. The MIC ([6]; KPN UFR24, alone) was 16 µg/mL, the MIC ([6]; KPN UFR25, alone) was 8 µg/mL and the MIC ([6]; KPN UFR27, alone) was 16 µg/mL. For the same molecule, the MIC ([6]; KPN UFR43, alone) was 8 µg/mL, the MIC ([6]; KPN UFR46, alone) was 32 µg/mL and the MIC ([6]; KPN UFR53, alone) was 16 µg/mL. For the same molecule, the MIC ([6]; KPN UFR68, alone) was 16 µg/mL, the MIC ([6]; KPN UFR76, alone) was > 32 µg/mL and the MIC ([6]; KPN UFR77, alone) was 8 µg/mL. It also gave an MIC ([6]; KPN UFR78, alone) of 32 µg/mL, an MIC ([6]; KPN UFR79, alone) of 16 µg/mL and an MIC ([6]; KPN UFR80, alone) of 16 µg/mL. It also gave an MIC ([6]; KPN UFR81, alone) of 16 µg/mL, an MIC ([6]; KPN UFR215, alone) of 32 µg/mL and an MIC ([6]; KPN UFR216, alone) of 8 µg/mL. It also gave an MIC ([6]; KPN UFR217, alone) of 8 µg/mL, an MIC ([6]; KPN UFR218, alone) of 4 µg/mL and an MIC ([6]; KPN UFR222, alone) of 8 µg/mL. For the same molecule, the MIC ([6]; KPN UFR227O, alone) was > 32 µg/mL, the MIC [6, 14] was 32 µg/mL and the MIC [6, 15] was 16 µg/mL. For the same molecule, the MIC [6, 16] was 16 µg/mL, the MIC [6, 17] was 16 µg/mL and the MIC [6, 18] was 16 µg/mL. For the same molecule, the MIC [6, 19] was 32 µg/mL, the MIC [6, 20] was > 32 µg/mL and the MIC [6, 21] was 16 µg/mL. The MIC [6, 22] was > 32 µg/mL, the MIC [6, 23] was 16 µg/mL and the MIC [6, 24] was 8 µg/mL. The MIC [6, 25] was 8 µg/mL, the MIC [6, 26] was 16 µg/mL and the IC50 [7] was 84 nM. It also gave an MIC [8] of 16 µg/mL, an IC50 [9] of 580 nM and an IC50 [10] of 69 nM. For the same molecule, the IC50 [11] was 140 nM, the IC50 [12] was 220 nM and the IC50 [13] was 1.5 nM.

`O=C1N2CC(n3cccn3)=CC(C2)N1OC(F)(F)C(=O)[O-].[Li+]` (stereo not drawn) [AF3] showed an IC50 [1] of 270 nM, an IC50 [2] of 6 nM and an IC50 [3] of 1100 nM. For the same molecule, the IC50 [4] was 4.3 nM, the IC50 [5] was 8900 nM and the MIC ([6]; BAA1898, KPN BAA-1898, alone) was 16 µg/mL. It also gave an MIC ([6]; KPN 6299, alone) of 16 µg/mL, an MIC ([6]; KPN 110376, alone) of 16 µg/mL and an MIC ([6]; KPN 121206, alone) of 16 µg/mL. It also gave an MIC ([6]; KPN 131119, alone) of 8 µg/mL, an MIC ([6]; KPN 140513, alone) of 32 µg/mL and an MIC ([6]; KPN 160143, alone) of 4 µg/mL. For the same molecule, the MIC ([6]; KPN 190128, alone) was 32 µg/mL, the MIC ([6]; KPN 190270, alone) was 32 µg/mL and the MIC ([6]; KPN 190425, alone) was 16 µg/mL. For the same molecule, the MIC ([6]; KPN 190551, alone) was 4 µg/mL, the MIC ([6]; KPN 200047, alone) was 4 µg/mL and the MIC ([6]; KPN 200327, alone) was 4 µg/mL. The MIC ([6]; KPN 260251, alone) was 16 µg/mL, the MIC ([6]; KPN 260252, alone) was > 32 µg/mL and the MIC ([6]; KPN 260376, alone) was 4 µg/mL. The MIC ([6]; KPN 270077, alone) was > 32 µg/mL, the MIC ([6]; KPN 700603, alone) was 32 µg/mL and the MIC ([6]; KPN ARA, alone) was 8 µg/mL. For the same molecule, the MIC ([6]; KPN LIB, alone) was 8 µg/mL, the MIC ([6]; KPN UFR22_O, alone) was 16 µg/mL and the MIC ([6]; KPN UFR23, alone) was 8 µg/mL. The MIC ([6]; KPN UFR24, alone) was 32 µg/mL, the MIC ([6]; KPN UFR25, alone) was 8 µg/mL and the MIC ([6]; KPN UFR27, alone) was 16 µg/mL. For the same molecule, the MIC ([6]; KPN UFR28, alone) was 16 µg/mL, the MIC ([6]; KPN UFR33, alone) was > 32 µg/mL and the MIC ([6]; KPN UFR42, alone) was 16 µg/mL. It also gave an MIC ([6]; KPN UFR43, alone) of 8 µg/mL, an MIC ([6]; KPN UFR46, alone) of 32 µg/mL and an MIC ([6]; KPN UFR53, alone) of 8 µg/mL. It also gave an MIC ([6]; KPN UFR65, alone) of 32 µg/mL, an MIC ([6]; KPN UFR66, alone) of 32 µg/mL and an MIC ([6]; KPN UFR67, alone) of 32 µg/mL. The MIC ([6]; KPN UFR68, alone) was 16 µg/mL, the MIC ([6]; KPN UFR76, alone) was > 32 µg/mL and the MIC ([6]; KPN UFR77, alone) was 8 µg/mL. The MIC ([6]; KPN UFR78, alone) was > 32 µg/mL, the MIC ([6]; KPN UFR79, alone) was 32 µg/mL and the MIC ([6]; KPN UFR80, alone) was 32 µg/mL. The MIC ([6]; KPN UFR81, alone) was 16 µg/mL, the MIC ([6]; KPN UFR215, alone) was 32 µg/mL and the MIC ([6]; KPN UFR216, alone) was 4 µg/mL. The MIC ([6]; KPN UFR217, alone) was 8 µg/mL, the MIC ([6]; KPN UFR218, alone) was 4 µg/mL and the MIC ([6]; KPN UFR219, alone) was 16 µg/mL. The MIC ([6]; KPN UFR220, alone) was 4 µg/mL, the MIC ([6]; KPN UFR221, alone) was 4 µg/mL and the MIC ([6]; KPN UFR222, alone) was 8 µg/mL. The MIC ([6]; KPN UFR227O, alone) was > 32 µg/mL, the MIC [6, 14] was 32 µg/mL and the MIC [6, 15] was 16 µg/mL. For the same molecule, the MIC [6, 16] was 16 µg/mL, the MIC [6, 17] was 16 µg/mL and the MIC [6, 18] was 16 µg/mL. The MIC [6, 19] was > 32 µg/mL, the MIC [6, 20] was > 32 µg/mL and the MIC [6, 21] was 16 µg/mL. The MIC [6, 22] was > 32 µg/mL, the MIC [6, 23] was 16 µg/mL and the MIC [6, 24] was 8 µg/mL. It also gave an MIC [6, 25] of 8 µg/mL, an MIC [6, 26] of 32 µg/mL and an IC50 [7] of 40 nM. For the same molecule, the MIC [8] was 16 µg/mL, the IC50 [9] was 1000 nM and the IC50 [10] was 77 nM. It also gave an IC50 [11] of 120 nM, an IC50 [12] of 120 nM and an IC50 [13] of 0.66 nM.
